According to patent US4261977A, “Streptomycetal antibiotic” (Beecham Group Limited, priority 1975, dated 1981):
Where a name gives a salt, the structure may show the parent alone.

What was measured:
[1] = system: gram-positive and gram-negative organisms; assay: Antibacterial activity determined by the microtiter method (general statement); assay type: cell-based; details: substantially pure di-sodium salt, certain gram-positive and gram-negative organisms
[2] = system: β-lactamase producing strains of Staphylococcus aureus and Klebsiella aerogenes; assay: Synergy with β-lactam antibiotics (general statement); assay type: cell-based; details: substantially pure di-sodium salt; with ampicillin, amoxycillin and the like; certain bacteria
[3] = system: Klebsiella aerogenes; assay: Activity by conventional hole in plate method on agar; assay type: cell-based; details: yellow solid after cellulose chromatography; arbitrary units
Experimental: 300 ml. of 10% Pluronic L81 in soya-bean oil was added to prevent foaming. The fermentation was harvested after 48 hours and clarified by centrifugation. The clarified brew was arbitarily assigned an activity of 340 units/ml when assayed by the conventional hole in plate method on agar seeded with Klebsiella aerogenes.

[4] = system: Proteus morganii I580; assay: Antibacterial activity, microtitre method (Table 2); assay type: cell-based; details: heavy inoculum
Experimental: (§1) The antibacterial activity of the material produced as above was determined by the microtitre method using the overnight inoculum of the test organism at 0.2% concentration. The synergistic activity of the di-sodium salt of MM 17880 in combination with ampicillin and with cephaloridine against Klebsiella aerogenes and Staphylococcus aureus Russell are shown in Table 3.
(§2) Microtitre heavy inoculum

[5] = system: Streptococcus faecalis I; assay: as above; assay type: cell-based; details: heavy inoculum
Experimental: as §1, §2

[6] = system: Streptococcus pyogenes CN10; assay: as above; assay type: cell-based; details: heavy inoculum
Experimental: as §1, §2

[7] = Stability of salts and unsalted acid; assay type: physicochemical; details: salts compared with unsalted acid; in solution

Row | MIC [4] [µg/mL] | MIC [5] [µg/mL] | MIC [6] [µg/mL] | stability [7] | SMILES | antibacterial activity [1] | synergy with β-lactam antibiotics [2] | activity [3]
1 |  |  |  |  | CC(=O)NCCSC1=C(C(=O)O)N2C(=O)C(C(C)OS(=O)(=O)O)C2C1 (stereo not shown) [di-sodium salt of MM 17880] | good level of antibacterial activity | able to synergyse the anti-bacterial activity of β-lactam antibiotics | 16,000 units/mg
2 | 1.6 | 6.2 | < 0.04 | tends to decompose in solution | CC(=O)NCCSC1=C(C(=O)O)N2C(=O)C(C(C)OS(=O)(=O)O)C2C1 (stereo not shown) [MM 17880] |  |  | 
